Columns and labels:
[1] = Dissociation constant, pKa of the compound; assay type: physicochemical
[2] = Distribution coefficient, log D of the compound at pH 7.4; settings: octanol/water
[3] = biological target: T1, Pyroglutamylated RF-amide peptide receptor (Homo sapiens, UniProt Q96P65); assay: Displacement of [125I]-QRFP43 from human GPR103 receptor overexpressed in HEK membranes after 90 mins by liquid scintillation counting; assay type: cell membranes
T1 sequence (Q96P65 whole entry): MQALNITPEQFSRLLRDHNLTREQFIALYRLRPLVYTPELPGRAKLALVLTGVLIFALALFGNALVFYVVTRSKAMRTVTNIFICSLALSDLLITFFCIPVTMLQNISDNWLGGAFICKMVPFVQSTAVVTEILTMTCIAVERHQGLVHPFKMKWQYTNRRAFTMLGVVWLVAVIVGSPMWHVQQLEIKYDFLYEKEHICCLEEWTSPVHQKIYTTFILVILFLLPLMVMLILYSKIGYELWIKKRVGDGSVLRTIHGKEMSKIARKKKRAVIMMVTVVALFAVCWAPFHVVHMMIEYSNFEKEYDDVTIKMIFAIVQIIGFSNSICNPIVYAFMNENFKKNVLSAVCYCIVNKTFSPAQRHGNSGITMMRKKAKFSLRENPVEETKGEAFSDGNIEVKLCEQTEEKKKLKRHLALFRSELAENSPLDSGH

[4] = biological target: T1, Pyroglutamylated RF-amide peptide receptor; assay: Antagonist activity at human GPR103 receptor assessed as inhibition of inositol-1-phosphate production by cell-based assay; assay type: functional

SMILES	pKa [1]	logD [2]	IC50 [3] [nM]	IC50 [4] [nM]
COc1ccc(Cl)cc1NS(=O)(=O)c1ccc(OC)c2c1CC[C@@H](N(C)C)C2	10.5	2.3	79.4	79.4
COc1ccc(NC(=N)c2ccsc2)cc1CSC1CCCC1	–	2.5	126	100
COc1ccc(NC(=N)c2ccccc2)cc1CSC1CCCC1	–	2.5	25.1	20
COc1ccc(NC(=N)c2ccc(Br)s2)cc1CSC1CCCC1	–	> 5	126	20
COc1ccc(NC(=N)c2ccc(Cl)cc2)cc1CSC1CCCC1	–	3.7	39.8	12.6
COc1ccc(NC(=N)Cc2ccccc2)cc1CSC1CCCC1	–	2.3	–	6310
CCC(=N)Nc1ccc(OC)c(CSC2CCCC2)c1	–	1.2	–	> 39800
COc1ccc(NC(=N)c2cccnc2)cc1CSC1CCCC1	–	2.6	501	251
C/N=C(\c1cccs1)N(C)c1ccc(OC)c(CSC2CCCC2)c1	–	1.9	–	> 39800
COc1ccc(Nc2ccccn2)cc1CSC1CCCC1	–	4.6	> 31600	12600
COc1ccc(C(=N)Nc2ccccc2)cc1CSC1CCCC1	–	2.8	3980	1000
N=C(Nc1cccc(CSC2CCCC2)c1)c1cccs1	–	3.8	2510	794
N=C(Nc1ccc(Cl)c(CSC2CCCC2)c1)c1cccs1	–	3.9	3980	1000
COc1ccc(NC(=N)c2ccccc2)cc1C[S+]([O-])C1CCCC1 (centres undefined)	–	0.8	–	> 39800

More lines, in order of falling IC50 [4], values ahead:

pKa [1]	logD [2]	IC50 [3] [nM]	IC50 [4] [nM]	SMILES
–	–	–	31600	COc1ccc(NC(=N)c2ccccc2)cc1CS(=O)(=O)C1CCCC1
–	> 4.2	> 31600	7940	COc1ccc(NC(=O)c2cccs2)cc1CSC1CCCC1
–	4	25100	2510	COc1ccc(NC(=N)c2nccs2)cc1CSC1CCCC1
–	2.7	10000	2510	COc1ccc(NC(=N)c2cccs2)cc1COC1CCCC1
–	1.1	7940	2510	COc1ccc(NC(=N)c2ccccc2)cc1CNC(=O)C1CCCC1
9.3	< 0.6	5010	2510	Cc1cc2nc(NC(=N)N)nc(C)c2cc1C
–	> 4.8	–	2000	N=C(Nc1ccc(OC(F)(F)F)c(CSC2CCCC2)c1)c1cccs1
–	2.9	–	1580	COc1ccc(NC(=N)c2ccncc2)cc1CSC1CCCC1
–	> 3.8	10000	1580	Cc1ccc(NC(=N)c2cccs2)cc1CSC1CCCC1
–	2.6	7940	1580	COc1ccc(NC(=N)c2ccccc2)cc1CSc1ccccc1
–	> 3.9	1260	501	N=C(Nc1ccc(F)c(CSC2CCCC2)c1)c1cccs1
–	3.8	200	316	COc1ccc(NC(=N)c2ccccc2)cc1CCC1CCCC1
–	3.1	631	251	C/N=C(/Nc1ccc(OC)c(CSC2CCCC2)c1)c1cccs1
–	4.7	–	158	COc1ccc(NC(=N)c2cc(Br)cs2)cc1CSC1CCCC1
–	3.7	100	63.1	COc1ccc(NC(=N)c2cc(C)cs2)cc1CSC1CCCC1
8.1	3.3	158	50.1	COc1ccc(NC(=N)c2cccs2)cc1CSC1CCCC1

— ChEMBL document CHEMBL3286355, “New Hits as Antagonists of GPR103 Identified by HTS” (ACS Med Chem Lett, 2014)
